Laboratory results reported in patent publication US20250081967A1, “PESTICIDALLY ACTIVE HETEROCYCLIC DERIVATIVES WITH SULFOXIMINE CONTAINING SUBSTITUENTS” (SYNGENTA CROP PROTECTION AG, priority 2021, published 2025).

Key:
Format in all cases: in vivo
Diabrotica balteata = assay: Activity against Diabrotica balteata (corn root worm), maize sprouts; conditions: for percent effect (mortality or growth inhibition) at 200 ppm: 96 h, application rate 200 ppm, L2 larvae, 4 days after infestation, read-out: effect in at least one of the two categories (mortality or growth inhibition)
Procedure: Example B3: Activity Against Diabrotica Balteata (Corn Root Worm)
Maize sprouts placed onto an agar layer in 24-well microtiter plates were treated with aqueous test solutions prepared from 10′000 ppm DMSO stock solutions by spraying. After drying, the plates were infested with L2 larvae (6 to 10 per well). The samples were assessed for mortality and growth inhibition in comparison to untreated samples 4 days after infestation.

Plutella xylostella [1] = assay: Activity against Plutella xylostella (diamond back moth), artificial diet, L2 larvae; conditions: 120 h, application rate 200 ppm, 5 days after infestation, read-out: effect in at least one of the two categories (mortality or growth inhibition)
Procedure: Example B2: Activity Against Plutella xylostella (Diamond Back Moth)
(§1) 24-well microtiter plates with artificial diet were treated with aqueous test solutions prepared from 10′000 ppm DMSO stock solutions by pipetting. After drying, the plates were infested with L2 larvae (10 to 15 per well). The samples were assessed for mortality and growth inhibition in comparison to untreated samples 5 days after infestation.

Myzus persicae [2] = assay: Activity against Myzus persicae (green peach aphid), feeding/contact activity, sunflower leaf discs; conditions: Myzus persicae, foliar; for mortality at 200 ppm: 144 h, application rate 200 ppm, feeding/contact, 6 days after infestation
Procedure: Example B4: Activity Against Myzus persicae (Green Peach Aphid) Feeding/Contact Activity
Sunflower leaf discs were placed on agar in a 24-well microtiter plate and sprayed with aqueous test solutions prepared from 10′000 ppm DMSO stock solutions. After drying, the leaf discs were infested with an aphid population of mixed ages. The samples were assessed for mortality 6 days after infestation.

Spodoptera littoralis = assay: Activity against Spodoptera littoralis (Egyptian cotton leaf worm), cotton leaf discs; conditions: foliar, 72 h, application rate 200 ppm, L1 larvae, 3 days after infestation, read-out: control (mortality, anti-feeding effect or growth inhibition)
Procedure: Example B1: Activity Against Spodoptera littoralis (Egyptian Cotton Leaf Worm)
Cotton leaf discs were placed onto agar in 24-well microtiter plates and sprayed with aqueous test solutions prepared from 10′000 ppm DMSO stock solutions. After drying the leaf discs were infested with five L1 larvae. The samples were assessed for mortality, anti-feeding effect, and growth inhibition in comparison to untreated samples 3 days after infestation. Control of Spodoptera littoralis by a test sample is given when at least one of the categories mortality, anti-feedant effect, and growth inhibition is higher than the untreated sample.

Bemisia tabaci = assay: Activity against Bemisia tabaci (cotton white fly), cotton leaf discs; conditions: foliar; for mortality at 200 ppm: 144 h, application rate 200 ppm, adult white flies, 6 days after incubation
Procedure: Example B6: Activity Against Bemisia tabaci (Cotton White Fly)
Cotton leaf discs were placed on agar in 24-well microtiter plates and sprayed with aqueous test solutions prepared from 10′000 ppm DMSO stock solutions. After drying the leaf discs were infested with adult white flies. The samples were checked for mortality 6 days after incubation.

Myzus persicae [3] = assay: Activity against Myzus persicae (green peach aphid), systemic activity, pea seedlings; conditions: for mortality at 24 ppm: Myzus persicae, 144 h, test rate 24 ppm, systemic, 6 days after placing seedlings in test solutions
Procedure: Example B5: Activity Against Myzus persicae (Green Peach Aphid) Systemic Activity
Roots of pea seedlings infested with an aphid population of mixed ages were placed directly in the aqueous test solutions prepared from 10′000 DMSO stock solutions. The samples were assessed for mortality 6 days after placing seedlings in test solutions.

Euschistus heros = assay: Activity against Euschistus heros (neotropical brown stink bug), soybean leaf; conditions: 120 h, application rate 200 ppm, N-2 nymphs, 5 days after infestation, read-out: effect in at least one of the two categories (mortality or growth inhibition)
Procedure: Example B7: Activity Against Euschistus heros (Neotropical Brown Stink Bug)
Soybean leaf on agar in 24-well microtiter plates were sprayed with aqueous test solutions prepared from 10′000 ppm DMSO stock solutions. After drying the leaf were infested with N-2 nymphs. The samples were assessed for mortality and growth inhibition in comparison to untreated samples 5 days after infestation.

Plutella xylostella [4] = assay: Activity against Plutella xylostella (diamond back moth), artificial diet, eggs; conditions: 192 h, application rate 200 ppm, 8 days after infestation, read-out: effect in at least one of the two categories (mortality or growth inhibition)
Procedure: Example B9: Activity Against Plutella xylostella (Diamond Back Moth)
as §1, with “drying, Plutella eggs were pipetted through a plastic stencil onto a gel blotting paper and” for “drying,”, “plate was closed” for “plates were infested”, “it.” for “L2 larvae (10 to 15 per well).”, “8” for “5”

Row | Compound | percent effect (mortality or growth inhibition) at 200 ppm (Diabrotica balteata) [%] | percent effect (mortality or growth inhibition) at 200 ppm (Plutella xylostella [1]) [%] | mortality at 200 ppm (Myzus persicae [2]) [%] | percent control (mortality, anti-feedant effect or growth inhibition) at 200 ppm (Spodoptera littoralis) [%] | mortality at 200 ppm (Bemisia tabaci) [%] | mortality at 24 ppm (Myzus persicae [3]) [%] | percent effect (mortality or growth inhibition) at 200 ppm (Euschistus heros) [%] | mortality at 50 ppm (Myzus persicae [2]; Myzus persicae (contact), concentration 50 ppm) [%] | Mortality (%) (Diabrotica balteata; concentration 3.125 ppm) | Mortality (%) (Myzus persicae [3]; Myzus persicae (systemic), concentration 24 ppm) | percent effect (mortality or growth inhibition) at 200 ppm (Plutella xylostella [4]) [%] | mortality at 50 ppm (Bemisia tabaci; concentration 50 ppm) [%] | Mortality (%) (Diabrotica balteata; concentration 50 ppm)
1 | CCS(=N)(=O)c1cc(OC(C)(C)C#N)cnc1-c1cn2ccc(C(F)(F)F)cc2n1 (racemic) [Compound P3, 2-[[5-(ethylsulfonimidoyl)-6-[7-(trifluoromethyl)imidazo[1,2-a]pyridin-2-yl]-3-pyridyl]oxy]-2-methyl-propanenitrile] | ≥ 80 | ≥ 80 | ≥ 80 | ≥ 80 |  |  |  |  |  |  |  |  | 
2 | CCS(=N)(=O)c1cc(C2(C#N)CC2)ccc1-c1nc2cc(C(F)(F)F)cnc2n1C (racemic) [Compound P6, 1-[3-(ethylsulfonimidoyl)-4-[3-methyl-6-(trifluoromethyl)imidazo[4,5-b]pyridin-2-yl]phenyl]cyclopropanecarbonitrile] |  | ≥ 80 | ≥ 80 | ≥ 80 | ≥ 80 | ≥ 80 | ≥ 80 |  |  |  |  |  | 
3 | CCS(=N)(=O)c1cc(OC(C)(C)C#N)cnc1-c1cn2cnc(C(F)(F)F)cc2n1 (racemic) [Compound P11, 2-[[5-(ethylsulfonimidoyl)-6-[7-(trifluoromethyl)imidazo[1,2-c]pyrimidin-2-yl]-3-pyridyl]oxy]-2-methyl-propanenitrile] | ≥ 80 | ≥ 80 | ≥ 80 | ≥ 80 | ≥ 80 | ≥ 80 |  |  |  |  |  |  | 
4 | CCS(=N)(=O)c1cc(C(C)(C)C#N)cnc1-c1nc2cc(C(F)(F)F)cnc2n1C (racemic) [Compound P12, 2-[5-(ethylsulfonimidoyl)-6-[3-methyl-6-(trifluoromethyl)imidazo[4,5-b]pyridin-2-yl]-3-pyridyl]-2-methyl-propanenitrile] | ≥ 80 | ≥ 80 | ≥ 80 | ≥ 80 | ≥ 80 | ≥ 80 |  |  |  |  |  |  | 
5 | CCS(=N)(=O)c1cc(OC(C)(C)C#N)cnc1-c1nc2cc(C(F)(F)F)nnc2n1C (racemic) [Compound P15, 2-[[5-(ethylsulfonimidoyl)-6-[7-methyl-3-(trifluoromethyl)imidazo[4,5-c]pyridazin-6-yl]-3-pyridyl]oxy]-2-methyl-propanenitrile] | ≥ 80 | ≥ 80 | ≥ 80 |  | ≥ 80 | ≥ 80 | ≥ 80 |  |  |  |  |  | 
6 | CCS(=N)(=O)c1cc(C2(C#N)CC2)cnc1-c1nc2cc(C(F)(F)F)cnc2n1C (racemic) [Compound P16, 1-[5-(ethylsulfonimidoyl)-6-[3-methyl-6-(trifluoromethyl)imidazo[4,5-b]pyridin-2-yl]-3-pyridyl]cyclopropanecarbonitrile] |  | ≥ 80 | ≥ 80 |  | ≥ 80 | ≥ 80 |  |  |  |  |  |  | 
7 | CCS(=N)(=O)c1cc(OC(C)(C)C#N)c(C)nc1-c1nc2cc(C(F)(F)F)ncc2n1C (racemic) [Compound P17, 2-[[5-(ethylsulfonimidoyl)-2-methyl-6-[3-methyl-6-(trifluoromethyl)imidazo[4,5-c]pyridin-2-yl]-3-pyridyl]oxy]-2-methyl-propanenitrile] |  | ≥ 80 | ≥ 80 | ≥ 80 | ≥ 80 | ≥ 80 |  |  |  |  |  |  | 
8 | CCS(=N)(=O)c1cc(OC(C)(C)C#N)cnc1-c1nc2cc(C(F)(F)F)n(C3CC3)c(=O)c2n1C (single isomer, unassigned) [Compound P1-A, 2-[[6-[5-cyclopropyl-3-methyl-4-oxo-6-(trifluoromethyl)imidazo[4,5-c]pyridin-2-yl]-5-(ethylsulfonimidoyl)-3-pyridyl]oxy]-2-methyl-propanenitrile] | ≥ 80 |  | ≥ 80 | ≥ 80 | ≥ 80 | ≥ 80 | ≥ 80 | 100 |  |  |  |  | 
9 | CCS(=N)(=O)c1cc(OC(C)(C)C#N)c(C)nc1-c1nc2cc(C(F)(F)F)cnc2n1C (single isomer, unassigned) [Compound P5-B, 2-[[5-(ethylsulfonimidoyl)-2-methyl-6-[3-methyl-6-(trifluoromethyl)imidazo[4,5-b]pyridin-2-yl]-3-pyridyl]oxy]-2-methyl-propanenitrile] |  |  |  |  |  |  | ≥ 80 |  | 100 | 100 | ≥ 80 |  | 
10 | CCS(=N)(=O)c1cc(OC(C)(C)C#N)cnc1-c1cn2cnc(SC(F)(F)F)cc2n1 (single isomer, unassigned) [Compound P7-A, 2-[[5-(ethylsulfonimidoyl)-6-[7-(trifluoromethylsulfanyl)imidazo[1,2-c]pyrimidin-2-yl]-3-pyridyl]oxy]-2-methyl-propanenitrile] | ≥ 80 |  | ≥ 80 | ≥ 80 | ≥ 80 | ≥ 80 | ≥ 80 |  |  |  |  | 80 | 
11 | CCS(=N)(=O)c1cc(C2(C#N)CC2)cnc1-c1nc2cc(C(F)(F)F)n(OC)c(=O)c2n1C (single isomer, unassigned) [Compound P8-A, 1-[5-(ethylsulfonimidoyl)-6-[5-methoxy-3-methyl-4-oxo-6-(trifluoromethyl)imidazo[4,5-c]pyridin-2-yl]-3-pyridyl]cyclopropanecarbonitrile] | ≥ 80 |  | ≥ 80 | ≥ 80 | ≥ 80 | ≥ 80 | ≥ 80 |  |  |  |  |  | 
12 | CCn1c(C(F)(F)F)cc2nc(-c3ncc(C4(C#N)CC4)cc3S(=N)(=O)CC)n(C)c2c1=O (single isomer, unassigned) [Compound P14-A, 1-[6-[5-ethyl-3-methyl-4-oxo-6-(trifluoromethyl)imidazo[4,5-c]pyridin-2-yl]-5-(ethylsulfonimidoyl)-3-pyridyl]cyclopropanecarbonitrile] | ≥ 80 |  | ≥ 80 | ≥ 80 | ≥ 80 | ≥ 80 | ≥ 80 |  |  |  | ≥ 80 |  | 80
13 | CCS(=N)(=O)c1cc(OC(C)(C)C#N)c(C)nc1-c1nc2cc(C(F)(F)F)ncc2n1C (single isomer, unassigned) [Compound P17-B, 2-[[5-(ethylsulfonimidoyl)-2-methyl-6-[3-methyl-6-(trifluoromethyl)imidazo[4,5-c]pyridin-2-yl]-3-pyridyl]oxy]-2-methyl-propanenitrile] |  |  |  | ≥ 80 |  |  | ≥ 80 |  |  |  |  |  | 
